# pEC50: −log10 of the molar value. Read-outs that look alike come from different tables or passages of the source.
# Molecular target: human cannabinoid CB2 receptor (Homo sapiens, UniProt P34972)
# Assay: Cannabinoid CB2 receptor agonist activity (yeast reporter assay, FDGlu fluorescence)
# Format: cell-based
# Details: for Emax: read-out: efficacy value (Emax relative to HU210) at the cloned human cannabinoid CB2 receptor
# Outline: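 Agonist-driven growth was read as fluorescein fluorescence (ex 485, em 535 nm) from FDGlu cleavage after 24 h at 30 °C, using yeast strain MMY23 carrying human CB2 and chimeric Gpa1/Gαi3. Medium had 10 mM 3-aminotriazole, pH 7.0; four-parameter fits gave EC50, with Emax and EMR versus HU210.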
# [1] = EC50 value at the cloned human cannabinoid CB2 receptor
# Chain of human cannabinoid CB2 receptor (P34972 whole entry): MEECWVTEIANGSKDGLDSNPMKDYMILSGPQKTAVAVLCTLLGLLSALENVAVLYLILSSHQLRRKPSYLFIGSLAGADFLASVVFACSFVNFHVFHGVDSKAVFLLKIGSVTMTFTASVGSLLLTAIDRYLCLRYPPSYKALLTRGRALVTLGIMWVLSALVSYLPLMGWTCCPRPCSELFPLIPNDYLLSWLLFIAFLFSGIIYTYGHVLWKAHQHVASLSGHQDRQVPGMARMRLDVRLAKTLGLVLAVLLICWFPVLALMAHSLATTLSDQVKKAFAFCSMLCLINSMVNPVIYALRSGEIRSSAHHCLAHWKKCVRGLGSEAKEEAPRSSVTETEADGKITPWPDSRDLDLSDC
Structure (SMILES),pEC50 [1],Emax,pEC50 (read-out: EC50 value at the cloned human cannabinoid CB2 receptor),activity in the CB2 assay described herein
"O=C(NCC1CCCC1)c1cnc(Nc2cc(Cl)ccc2Cl)nc1C(F)(F)F [Example 42, 2-(2,5-Dichlorophenylamino)-4-trifluoromethylpyrimidine-5-carboxylic acid cyclopentylmethyl-amide]",6.52 to 7.70,> 50%,–,–
"O=C(NCC1CCOCC1)c1cnc(Nc2cc(Cl)ccc2F)nc1C(F)(F)F [Example 213, 2-(2-Fluoro-5-chloro-phenylamino)-4-trifluoromethyl-pyrimidine-5-carboxylic acid (tetrahydro-pyran-4-ylmethyl)-amide]",6.52 to 7.70,> 50%,–,–
"O=C(NCC1CCCCC1)c1cnc(Nc2ccc(Cl)cc2F)nc1C(F)(F)F [Example 226, 2-(2-Fluoro-4-chloro-phenylamino)-4-trifluoromethyl-pyrimidine-5-carboxylic acid cyclohexylmethyl-amide]",6.52 to 7.70,> 50%,–,–
"O=C(NCC1CCC1)c1cnc(Nc2ccc(Cl)c(Cl)c2)nc1C(F)(F)F [Example 204, 2-(3,4-Dichlorophenylamino)-4-trifluoromethyl-pyrimidine-5-carboxylic acid cyclobutylmethyl-amide]",6.52 to 7.70,> 50%,–,–
"O=C(NCC1CCCC1)c1cnc(Nc2cccc(Cl)c2Cl)nc1C(F)(F)F [Example 40, 2-(2,3-Dichlorophenylamino)-4-trifluoromethylpyrimidine-5-carboxylic acid cyclopentylmethyl-amide]",6.52 to 7.70,> 50%,–,–
"O=C(NCC1CCSCC1)c1cnc(Nc2ccc(Cl)cc2Cl)nc1C(F)(F)F [Example 256, 2-(2,4-Dichlorophenylamino)-4-trifluoromethyl-pyrimidin-5-carboxylic acid (tetrahydrothiopyran-4-ylmethyl) amide]",6.52 to 7.70,> 50%,–,–
"O=C(NCc1ccc(F)cc1)c1cnc(Nc2ccc(Cl)c(Cl)c2)nc1C(F)(F)F [Example 367, 2-(3,4-Dichloro-phenylamino)-4-trifluoromethyl-pyrimidine-5-carboxylic acid 4-fluoro-benzylamide]",6.52 to 7.70,–,–,–
"N#Cc1cc(Nc2ncc(C(=O)NCC3CCOCC3)c(C(F)(F)F)n2)ccc1Cl [Example 111, 2-(4-Chloro-3-cyano-phenylamino)-4-tri-fluoromethyl-pyrimidine-5-carboxylic acid (tetrahydropyran-4-ylmethyl)-amide]",6.00 to 6.52,> 50%,–,–
"Cc1ccc(Nc2ncc(C(=O)NCC3CCOCC3)c(C(F)(F)F)n2)c(Cl)c1 [Example 110, 2-(2-Chloro-4-methyl-phenylamino)-4-tri-fluoromethyl-pyrimidine-5-carboxylic acid (tetrahydropyran-4-ylmethyl)-amide]",6.00 to 6.52,> 50%,–,–
"O=C(NCC1CCC1)c1cnc(Nc2ccc(Br)cc2C(F)(F)F)nc1C(F)(F)F [Example 105, 2-(2-Trifluoromethyl-4-bromophenylamino)-4-trifluoromethyl-pyrimidine-5-carboxylic acid cyclobutylmethyl-amide]",6.00 to 6.52,> 50%,–,–
"N#Cc1ccc(Nc2ncc(C(=O)NCC3CCOCC3)c(C(F)(F)F)n2)cc1 [Example 175, 2-(4-Cyanophenylamino)-4-trifluoromethyl-pyrimidine-5-carboxylic acid (tetrahydropyran-4-ylmethyl)-amide]",6.52 to 7.70,> 50%,–,–
"O=C(NCC1CCC1)c1cnc(Nc2cc(F)cc(C(F)(F)F)c2)nc1C(F)(F)F [Example 258, 2-(3-Fluoro-5-trifluoromethylphenylamino)-4-trifluoromethyl-pyrimidine-5-carboxylic acid cyclobutylmethyl-amide]",6.00 to 6.52,> 50%,–,–
"CN(Cc1ccccc1)C(=O)c1cnc(Nc2cccc(Br)c2)nc1C(F)(F)F [Example 279, 2-(3-Bromophenylamino)-4-trifluoromethylpyrimidine-5-carboxylic acid N-benzyl-N-methylamide]",6.52 to 7.70,–,–,–
"N#Cc1ccc(Nc2ncc(C(=O)NCC3CCCC3)c(C(F)(F)F)n2)cc1Cl [Example 219, 2-(4-Cyano-3-chloro-phenylamino)-4-trifluoromethyl-pyrimidine-5-carboxylic acid cyclopentylmethyl-amide]",6.52 to 7.70,> 50%,–,–
"O=C(NCc1ccncc1)c1cnc(Nc2cc(Cl)cc(Cl)c2)nc1C(F)(F)F [Example 287, 2-(3,5-Dichlorophenylamino)-4-trifluoromethylprimidine-5-carboxylic acid (pyridin-4-ylmethyl)amide]",6.52 to 7.70,–,–,–
"O=C(NCC1CC1)c1cnc(Nc2ccc(Cl)cc2Cl)nc1C(F)(F)F [Example 241, 2-(2,4-Dichlorophenylamino)-4-trifluoromethylpyrimidine-5-carboxylic acid cyclopropylmethyl-amide]",6.52 to 7.70,> 50%,–,–
"O=C(NCC1CCOCC1)c1cnc(Nc2ccc(Br)cc2C(F)(F)F)nc1C(F)(F)F [Example 254, 2-(2-Trifluoromethyl-4-bromo-phenylamino)-4-trifluoromethyl-pyrimidine-5-carboxylic acid (tetrahydro-pyran-4-ylmethyl)-amide]",6.52 to 7.70,> 50%,–,–

Structure (SMILES),pEC50 [1],Emax,pEC50 (read-out: EC50 value at the cloned human cannabinoid CB2 receptor),activity in the CB2 assay described herein
"O=C(NCc1ccnc(F)c1)c1cnc(Nc2cccc(Cl)c2Cl)nc1C(F)(F)F [Example 359, 2-(2,3-Dichloro-phenylamino)-4-trifluoromethyl-pyrimidine-5-carboxylic acid (2-fluoro-pyridin-4-ylmethyl)-amide]",6.52 to 7.70,–,–,–
"O=C(NCC1CCOCC1)c1cnc(Nc2ccc(OC(F)(F)F)c(Cl)c2)nc1C(F)(F)F [Example 216, 2-(4-Trifluoromethoxy-3-chloro-phenylamino)-4-trifluoromethyl-pyrimidine-5-carboxylic acid (tetrahydro-pyran-4-ylmethyl)-amide]",6.52 to 7.70,> 50%,–,–
"O=C(NCC1CCCCC1)c1cnc(Nc2cc(F)cc(C(F)(F)F)c2)nc1C(F)(F)F [Example 90, 2-(3-Fluoro-5-trifluoromethyl-phenylamino)-4-trifluoromethyl-pyrimidine-5-carboxylic acid cyclohexylmethyl-amide]",6.00 to 6.52,> 50%,–,–
"O=C(NCC1CCCCC1)c1cnc(Nc2ccc(F)cc2Cl)nc1C(F)(F)F [Example 222, 2-(2-Chloro-4-fluoro-phenylamino)-4-trifluoromethyl-pyrimidine-5-carboxylic acid cyclohexylmethyl-amide]",6.52 to 7.70,> 50%,–,–
"O=C(NCC1CCCCC1)c1cnc(Nc2ccc(Br)cc2C(F)(F)F)nc1C(F)(F)F [Example 106, 2-(2-Trifluoromethyl-4-bromophenylamino)-4-trifluoromethyl-pyrimidine-5-carboxylic acid cyclohexylmethyl-amide]",6.00 to 6.52,> 50%,–,–
"O=C(NCC1CCCCC1)c1cnc(Nc2cccc(Cl)c2Cl)nc1C(F)(F)F [Example 15, 2-(2,3-Dichlorophenylamino)-4-trifluoromethylpyrimidine-5-carboxylic acid cyclohexylmethyl-amide]",6.52 to 7.70,> 50%,–,–
"O=C(NCC1CCCC1)c1cnc(Nc2ccccc2)nc1C(F)(F)F [Example 251, 2-(Phenylamino)-4-trifluoromethyl-pyrimidine-5-carboxylic acid cyclopentylmethyl-amide]",6.52 to 7.70,> 50%,–,–
"O=C(NCc1ccncc1)c1cnc(Nc2ccc(Cl)cc2Cl)nc1C(F)(F)F [Example 282, 2-(2,4-Dichlorophenylamino)-4-trifluoromethylpyrimidine-5-carboxylic acid (pyridin-4-ylmethyl)amide]",6.52 to 7.70,–,–,–
"O=C(NCC1CCCCC1)c1cnc(Nc2cc(C(F)(F)F)cc(C(F)(F)F)c2)nc1C(F)(F)F [Example 88, 2-(3,5-Bis-trifluoromethyl-phenylamino)-4-trifluoromethyl-pyrimidine-5-carboxylic acid cyclohexylmethyl-amide]",6.00 to 6.52,> 50%,–,–
"O=C(c1cnc(Nc2ccccc2)nc1C(F)(F)F)N1CCCCC1 [Example 24, 1-(2-Phenylamino-4-trifluoromethyl-pyrimidin-5-yl)-1-piperidin-1-yl-methanone]",6.00 to 6.52,> 50%,–,–
"COc1ccccc1Nc1ncc(C(=O)N(C)Cc2ccccc2)c(C(F)(F)F)n1 [Example 296, 2-(2-Methoxy-phenylamino)-4-trifluoromethyl-pyrimidine-5-carboxylic acid N-benzyl-N-methyl-amide]",–,–,6.00 to 6.52,–
"Cc1c(Cl)cccc1Nc1ncc(C(=O)NCC2CCOCC2)c(C(F)(F)F)n1 [Example 185, 2-(3-Chloro-2-methylphenylamino)-4-trifluoromethyl-pyrimidine-5-carboxylic acid (tetrahydropyran-4-ylmethyl)-amide]",6.52 to 7.70,> 50%,–,–
"O=C(NCC1(O)CCCCC1)c1cnc(Nc2cccc(Cl)c2)nc1C(F)(F)F [Example 164, 2-(3-Chlorophenylamino)-4-trifluoromethyl-pyrimidine-5-carboxylic acid (1-hydroxycyclohexylmethyl)-amide]",6.52 to 7.70,> 50%,–,–
"O=C(NCC1CCCCC1)c1cnc(Nc2cc(Cl)ccc2F)nc1C(F)(F)F [Example 168, 2-(5-Chloro-2-fluorophenylamino)-4-trifluoromethyl-pyrimidine-5-carboxylic acid cyclohexylmethyl-amide]",6.52 to 7.70,> 50%,–,–
"O=C(NCC1CCCC1)c1cnc(Nc2cccc(Cl)c2)nc1C(F)(F)F [Example 2, 2-(3-Chlorophenylamino)-4-trifluoromethylpyrimidine-5-carboxylic acid cyclopentylmethyl-amide]",6.52 to 7.70,> 50%,–,–
O=C(NCc1ccccc1Br)c1cnc(Nc2cccc(Cl)c2)nc1C(F)(F)F [2-(3-Chloro-phenylamino)-4-trifluoromethyl-pyrimidine-5-carboxylic acid 2-bromo-benzylamide],–,–,–,inactive
